Test results reported in ChEMBL document CHEMBL5137025, “Tuberculosis Drug Discovery: Challenges and New Horizons” (J Med Chem, 2022).
Values after ≈ are worked out from the molar mass of the structure shown.

Test system: Mycobacterium tuberculosis variant bovis
Assay: Antibacterial activity against Mycobacterium bovis BCG assessed as inhibition of bacterial growth incubated for 4 to 7 days
Type: functional
Settings: time 4-7 day

In the case of `Nc1nc(N)c(N=O)c(OCC2CCCCC2)n1`, the MIC99 is reported as 1.6 µM (≈ 0.402 µg/mL).
